According to US20110071146A1, “17BetaHSD Type 5 Inhibitor” (ASTELLAS PHARMA INC., priority 2006, published 2011):
Where two headings read alike, the source gives them in different places.

How the values were obtained:
5α-reductase = conditions: patients with BPH; cited from earlier work
human 17βHSD type 5 = molecular target: T1, human 17βHSD type 5 (Homo sapiens, UniProt P42330); assay: Measurement of enzyme activity of human 17βHSD type 5 (testosterone production from androstenedione, DELFIA); format: biochemical; conditions: for IC50: purified human 17βHSD type 5, androstenedione 300 nM, NADPH 200 μM, pH 6.0, room temperature 2 hours
T1 construct: A full-length cDNA encoding human 17βHSD type 5 used in the pharmacological test; made in house; host or cells: Escherichia coli BL21
T1 sequence (P42330 1-323): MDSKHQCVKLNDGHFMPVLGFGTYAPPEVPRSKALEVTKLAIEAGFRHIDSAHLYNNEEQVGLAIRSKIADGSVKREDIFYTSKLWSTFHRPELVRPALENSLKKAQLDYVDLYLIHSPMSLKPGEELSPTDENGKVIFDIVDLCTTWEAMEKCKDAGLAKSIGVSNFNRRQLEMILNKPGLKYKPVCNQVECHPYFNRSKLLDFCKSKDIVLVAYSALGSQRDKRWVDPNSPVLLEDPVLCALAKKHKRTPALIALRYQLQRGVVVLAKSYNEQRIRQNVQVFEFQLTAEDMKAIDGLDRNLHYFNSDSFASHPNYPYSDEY
Text: (§1) An excellent selective inhibitory activity against human 17βHSD type 5 of the compounds of the present invention was confirmed by a test method described below. Further, the test may be performed by referring to the details of test procedure described in Maniatis, T. et al., Molecular Cloning—A Laboratory Manual Cold Spring Harbor Laboratory, NY and the like (1982). In addition, a gene encoding human 17βHSD type5 and type3 described in 1 and 2 below, and human 17βHSD type5 and type3 may be obtained by the method described in Mol. Endocrinol, 1971-1984, 11(13) (1997).
A full-length cDNA encoding human 17βHSD type 5 used in the pharmacological test of the present invention was obtained by the PCR method using a cDNA derived from a human lung cancer-derived cell line, A549 cells as a template. The nucleotide sequence of the obtained cDNA was analyzed by the dideoxyterminator method, and the clone matched with the known human 17βHSD type 5 sequence (GenBank accession No. NM_003739) was selected. Escherichia coli BL21 was transformed with a plasmid containing the cDNA, cultured on a large scale, and the proteins were purified by using GSTrapFF column (Amersham) and PreScissionProtease (Amersham). The purification was performed in accordance with the instructions attached to the GSTrapFF column.
(§2) Enzyme activity was measured referring to Trevor M. Penning, et al., Biochem. J., 351, 67-77, (2000). Specifically, using a 100 mM potassium phosphate buffer (pH 6.0), (1) the enzyme purified in above 1 at a final concentration of 10 μg/mL, (2) androstenedione at a final concentration of 300 nM, (3) NADPH at a final concentration of 200 μM and (4) a test substance at a final concentration of 3 μM were mixed to react at room temperature for 2 hours, and then the amount of testosterone produced was measured using DELFIA (registered trademark) Testosterone Reagents R050-201 (PerkinElmer). The measurement was performed in accordance with the attached instructions. The amount of reduction of testosterone production in the presence of the compound was obtained as a relative value with respect to the amount of testosterone in the absence of the enzyme set at 0% and the amount of testosterone produced in the absence of the compound set at 100%. Then, IC50 values were calculated by the Logistic regression method.

[1] = Measurement of concentrations of human 17βHSD type 5 inhibitor compounds in mouse tissues (plasma, prostate) after oral administration; format: in vivo; conditions: male ICR mice, 2 hours after administration
Experimental: The concentrations in plasma and in prostate were measured after oral administration of a test substance. Male 8 to 15-week old ICR mice were used, and a solution or suspension obtained by adding 1 N NaOH solution and water in an equivalent amount to a test substance and stirring was used as an administration solution. The administration solution was administered orally once to mice, and after 2 hours, blood and a prostate were collected under ether anesthesia. The prostate was frozen and stored at −80° C. until measurement. The blood was centrifuged (3000 rpm, 15 min, 4° C.) after the addition of a minor amount of heparin, and the upper layer was collected as plasma and frozen and stored at −80° C. until measurement. 0.1 mL of the plasma was subjected to protein degeneration with 0.1 mL of acetonitrile and then centrifuged (15000 rpm, 7 min, 4° C.) to remove proteins and the supernatant thus obtained was used as an HPLC sample. The prostate was homogenized in a phosphate buffer solution (200 mM, pH 7.4, 0.5 mL), and then the whole volume was added to 3 mL of t-butyl methyl ether to perform extraction. The solvent was evaporated in a stream of nitrogen (15 min, 45° C.). The residue was resuspended in a Tris buffer solution (12.5 mM, pH 7.4, 0.3 mL) containing 2% BSA, and an equal volume of acetonitrile (0.3 mL) was added. Protein was removed as in the case of plasma and the supernatant was used as an HPLC measurement sample. Measurement was performed by an ordinary method using liquid chromatography (HPLC).
Column: STR ODS-II (registered trademark), particle size: 5 μm, inner diameter: 4.6 mm, length: 150 mm, joint type: Waters Mobile phase: 20 mM ammonium acetate:acetonitrile=7:3 or 17 mM ammonium acetate:acetonitrile=6:4 Flow rate: 1 mL/min Column temperature: 40° C. Injection volume: 50 μL

human 17βHSD type 3 = molecular target: T2, human 17βHSD type 3 (Homo sapiens, UniProt P37058); assay: Measurement of enzyme activity of human 17βHSD type 3 (testosterone production from androstenedione, DELFIA); format: biochemical; conditions: human 17βHSD type 3 (293 cell supernatant as enzyme source)
T2 construct: A full-length cDNA encoding human 17βHSD type 3 used in the pharmacological test; made in house; host or cells: human fetus kidney-derived 293 cells (transfected; supernatant of disrupted cells, not purified)
T2 sequence (P37058 1-310): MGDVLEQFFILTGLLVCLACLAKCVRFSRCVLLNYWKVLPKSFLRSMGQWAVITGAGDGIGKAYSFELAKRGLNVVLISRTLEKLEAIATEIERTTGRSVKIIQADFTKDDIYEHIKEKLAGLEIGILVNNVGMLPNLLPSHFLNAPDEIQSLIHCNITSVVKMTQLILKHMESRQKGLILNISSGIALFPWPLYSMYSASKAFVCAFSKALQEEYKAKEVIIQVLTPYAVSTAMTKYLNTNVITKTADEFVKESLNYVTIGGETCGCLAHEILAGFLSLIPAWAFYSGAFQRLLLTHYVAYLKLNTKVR
Text: as §1
A full-length cDNA encoding human 17βHSD type 3 used in the pharmacological test of the present invention was obtained by the PCR method using a cDNA derived from human testis as a template. The nucleotide sequence of the obtained cDNA was analyzed by the dideoxyterminator method, and the clone matched with the known human 17βHSD type 3 sequence (GenBank accession No. BC034281) was selected. Subsequently, a human fetus kidney-derived cell line, 293 cells was transformed with a plasmid containing the cDNA, and the cells were collected 24 hours later. The collected cells were then disrupted in a phosphate buffer solution containing 5% glycerol (500 μL per 100 mm-dish of a phosphate buffer solution (pH 7.4, 200 mM) containing 5% glycerol) and centrifuged (16000 rpm, 5 min, 4° C.), and the supernatant was used as an enzyme source.
as §2

[2] = plasma, oral single dose 100 mg/kg, read-out: Conc (plasma)
[3] = prostate, oral single dose 100 mg/kg, read-out: Conc (prostate)
[4] = plasma, oral single dose 300 mg/kg, read-out: Conc (plasma)
[5] = prostate, oral single dose 300 mg/kg, read-out: Conc (prostate)

Compound: CC(C)(C)NC(=O)[C@H]1CC[C@H]2[C@@H]3CC[C@H]4NC(=O)C=C[C@]4(C)[C@H]3CC[C@]12C [finasteride]
- concentration of DHT in the prostate after administration, relative to the concentration before the administration (5α-reductase): about 20%
- increase of the concentration of testosterone in the prostate (5α-reductase): 4 fold

Compound: O=C(O)c1c(Cl)n(Cc2ccc(Cl)cc2)c2ccccc12 [(1), reference compound]
- IC50 (human 17βHSD type 5): > 10000 nM

Compound: O=C(O)c1cn(S(=O)(=O)c2ccccc2)c2ccc(F)cc12 [Example 175]
- concentration at 2 h [1, 2]: 83.8 µM
- concentration at 2 h [1, 3]: 8.6 µM
- IC50 (human 17βHSD type 3): 8900 nM
- IC50 (human 17βHSD type 5): 120 nM

Compound: O=C(O)c1cn(S(=O)(=O)c2ccccc2)c2c(F)cccc12 [Example 187]
- concentration at 2 h [1, 2]: 69.7 µM
- concentration at 2 h [1, 3]: 12.2 µM
- IC50 (human 17βHSD type 3): > 10000 nM
- IC50 (human 17βHSD type 5): 2200 nM

Compound: Cc1cc(Br)ccc1S(=O)(=O)n1cc(C(=O)O)c2cccc(Cl)c21 [Example 194]
- IC50 (human 17βHSD type 3): 6200 nM
- IC50 (human 17βHSD type 5): 190 nM

Compound: O=C(O)c1cn(S(=O)(=O)c2ccc(Br)cc2)c2c1CCCC2 [Example 208]
- IC50 (human 17βHSD type 3): > 10000 nM
- IC50 (human 17βHSD type 5): 2200 nM

Compound: O=C(O)c1cn(S(=O)(=O)c2ccccc2)c2ccc(Cl)cc12 [Example 190]
- concentration at 2 h [1, 4]: 226 µM
- concentration at 2 h [1, 5]: 37.4 µM
- IC50 (human 17βHSD type 3): > 10000 nM
- IC50 (human 17βHSD type 5): 690 nM

Compound: CC(C)c1ccc(S(=O)(=O)n2cc(C(=O)O)c3cccc(Cl)c32)cc1 [Example 193]
- IC50 (human 17βHSD type 3): > 10000 nM
- IC50 (human 17βHSD type 5): 130 nM

Compound: O=C(O)c1cn(S(=O)(=O)c2ccccc2)c2ccccc12 [Example 1, 1-(phenylsulfonyl)-1H-indole-3-carboxylic acid]
- concentration at 2 h ([1]; plasma, oral single dose 30 mg/kg, read-out: Conc (plasma)): 17 µM
- concentration at 2 h [1, 2]: 57.4 µM
- concentration at 2 h [1, 4]: 145 µM
- concentration at 2 h ([1]; prostate, oral single dose 30 mg/kg, read-out: Conc (prostate)): 5.3 µM
- concentration at 2 h [1, 3]: 13.3 µM
- concentration at 2 h [1, 5]: 47.4 µM

Compound: O=C(O)c1cn(S(=O)(=O)c2ccc(Br)cc2)c2c(Cl)cccc12 [Example 192]
- concentration at 2 h [1, 2]: 57.3 µM
- concentration at 2 h [1, 4]: 126 µM
- concentration at 2 h [1, 3]: 9.4 µM
- concentration at 2 h [1, 5]: 24.9 µM
- IC50 (human 17βHSD type 3): > 10000 nM
- IC50 (human 17βHSD type 5): 69 nM

Compound: O=C(O)c1c(Cl)n(Cc2ccc(Cl)cc2Cl)c2ccccc12 [(2), reference compound]
- IC50 (human 17βHSD type 5): > 10000 nM
- 17βHSD type 5 inhibitory activity (in words) (human 17βHSD type 5; summary of Table 51): scarcely exhibited 17βHSD type 5 inhibitory activity

Compound: O=C(O)c1cn(S(=O)(=O)c2ccc(Br)cc2)c2ccccc12 [Example 144]
- concentration at 2 h [1, 2]: 38.5 µM
- concentration at 2 h [1, 4]: 79.1 µM
- concentration at 2 h [1, 3]: 7.2 µM
- concentration at 2 h [1, 5]: 24.8 µM
- IC50 (human 17βHSD type 3): > 10000 nM
- IC50 (human 17βHSD type 5): 90 nM

Compound: Cc1ccc2c(c1)c(C(=O)O)cn2S(=O)(=O)c1ccccc1 [Example 163]
- concentration at 2 h [1, 2]: 88.8 µM
- concentration at 2 h [1, 3]: 19.1 µM
- IC50 (human 17βHSD type 3): > 10000 nM
- IC50 (human 17βHSD type 5): 220 nM

Compound: CCc1cccc2c(C(=O)O)cn(S(=O)(=O)c3ccccc3)c12 [Example 168]
- IC50 (human 17βHSD type 3): > 10000 nM
- IC50 (human 17βHSD type 5): 85 nM

Compound: COc1cccc2c1c(C(=O)O)cn2S(=O)(=O)c1ccccc1 [Example 155]
- concentration at 2 h [1, 2]: 88.4 µM
- concentration at 2 h [1, 3]: 23 µM
- IC50 (human 17βHSD type 3): > 10000 nM
- IC50 (human 17βHSD type 5): 5500 nM

Compound: Cc1ccc(S(=O)(=O)n2cc(C(=O)O)c3ccccc32)cc1 [Example 138]
- IC50 (human 17βHSD type 3): > 10000 nM
- IC50 (human 17βHSD type 5): 330 nM

Compound: O=C(O)c1cn(S(=O)(=O)c2ccc(Br)cc2)c2cc3c(cc12)OCO3 [Example 203]
- IC50 (human 17βHSD type 3): > 10000 nM
- IC50 (human 17βHSD type 5): 2000 nM

Compound: COc1ccc(S(=O)(=O)n2cc(C(=O)O)c3ccccc32)cc1 [Example 133, 1-[(4-methoxyphenyl)sulfonyl]-1H-indole-3-carboxylic acid]
- IC50 (human 17βHSD type 3): > 10000 nM
- IC50 (human 17βHSD type 5): 3100 nM

Compound: O=C(O)c1cn(S(=O)(=O)c2ccccc2)c2c(Cl)cccc12 [Example 191]
- IC50 (human 17βHSD type 3): > 10000 nM
- IC50 (human 17βHSD type 5): 300 nM
